# How the values were obtained:
# Wee-1 kinase = biological target: T1, Wee-1 kinase (Homo sapiens, UniProt P30291); assay: Measurement of Wee-1 kinase activity (ADP-Glo luminescent kit); format: biochemical
# T1 construct: purchased Invitrogen PV3817
# Method: Method 1: Measurement of Wee-1 Kinase Activity
# In the measurement of Wee-1 activity, a commercial peptide Poly(Lys Tyr (4:1)) hydrobromide was purchased from Sigma Aldrich and used as the substrate. Activated Wee-1 kinase was purchased from Invitrogen (PV3817) and an ADP-Glo luminescent kit was purchased from Promega.
# All reactions took place in […] volumes in reaction buffer containing 40 mM Tris-HCl and 20 mM magnesium chloride, supplemented with 0.1 mg/mL bovine serum albumin and 2 mM DTT. Compounds were serially diluted in buffer and 5 μL of each concentration pipetted into a white 384 well plate (Sigma Aldrich M6186). A 5 μL aliquot of the Wee-1 enzyme was added to each well and the plate centrifuged for 1 min to ensure mixing of the enzyme and inhibitor.
# The plate was incubated at room temperature for 30 minutes before the addition of 2.0 μg/mL of substrate and 30 μM ATP in a 5 μL aliquot. The plate was centrifuged for one minute and incubated for 1 h at RT.
# 15 µL of ADP-Glo stop reagent was added to each well to quench the reaction and deplete unconverted ATP. The plate was incubated for a further 40 min in the dark at RT.
# 30 μL of ADP-Glo kinase detection reagent was added to each well, converting ADP to ATP, catalysing the generation of luciferin by luciferase. The plate was shaken for 1 min, and incubated in the dark for an additional hour.
# Luminescence from each well was detected using the Biotek Synergy4 HD plate reader and the percentage inhibition of kinase activity calculated for each inhibitor tested. Positive (kinase only) and negative (no kinase) controls were added to each plate to ensure specific interaction of kinase and inhibitor. The IC50 concentration for each inhibitor was calculated by plotting the percentage kinase inhibition against concentration of inhibitor and the curve generated by non-linear regression fitting.
# [1] = CLint estimates using human liver microsomes (Method 4); format: in vitro ADME; conditions: pH 7.4, 1 μM compound, read-out: Mics - CLint (HLM CLint)
# Method: Method 4: Determination of CLint Estimates Using Human liver microsomes Test compounds (final concentration=1 μM; final DMSO concentration=0.1%) were incubated in 0.1 M phosphate buffer pH 7.4 with human liver microsomes (0.5 mg of protein/mL) at 37° C. Reactions were started by addition of NADPH in 0.1 M phosphate buffer pH 7.4 (final concentration 1 mM). 40 μL aliquots were removed at 2, 5, 10, 15, 20, 30, 40 and 50 min. Reactions were quenched in 80 μL of ice-cold methanol. Samples were subsequently frozen overnight then centrifuged at 3500 rpm for 20 min at 4° C. The supernatants were removed and transferred into analytical plates and analysed by LC/MS/MS. LC/MS/MS Method: All samples were analysed on a Waters Acquity I-Class coupled to a Waters Xevo TQD mass spectrometer. A Waters BEH C18 2.1×50 mm 1.7 μm column was used and mobile phases were water and methanol containing 0.1% formic acid as modifier. Analysis was by multiple reaction monitoring and conditions were optimised for each test compound. Data Analyses: From a plot of 1n peak area against time, the gradient of the line is determined. Subsequently, half-life and intrinsic clearance are calculated using the following equations. [formula] [formula] [formula] where V=Incubation volume (μL)/number of cells Method 5: Determination of Kinetic Solubility (in PBS Buffer)
# T1 sequence (P30291 whole entry): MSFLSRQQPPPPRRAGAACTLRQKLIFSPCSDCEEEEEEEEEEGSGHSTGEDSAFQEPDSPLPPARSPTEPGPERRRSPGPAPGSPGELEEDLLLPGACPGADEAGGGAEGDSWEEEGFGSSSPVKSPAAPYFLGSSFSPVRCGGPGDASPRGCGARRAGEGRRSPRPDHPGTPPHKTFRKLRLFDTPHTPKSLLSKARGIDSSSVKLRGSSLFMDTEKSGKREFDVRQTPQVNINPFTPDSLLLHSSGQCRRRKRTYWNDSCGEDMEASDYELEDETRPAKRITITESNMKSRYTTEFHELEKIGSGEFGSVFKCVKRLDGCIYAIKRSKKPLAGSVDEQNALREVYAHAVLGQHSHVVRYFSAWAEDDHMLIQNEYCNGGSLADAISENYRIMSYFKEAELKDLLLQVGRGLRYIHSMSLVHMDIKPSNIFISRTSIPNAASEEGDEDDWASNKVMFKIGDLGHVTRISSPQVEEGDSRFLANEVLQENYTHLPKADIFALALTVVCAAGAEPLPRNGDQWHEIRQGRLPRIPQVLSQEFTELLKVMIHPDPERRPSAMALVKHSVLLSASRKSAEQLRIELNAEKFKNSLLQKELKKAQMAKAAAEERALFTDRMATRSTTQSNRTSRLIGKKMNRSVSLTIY
SMILES,IC50 (Wee-1 kinase),microsomal CLint at 1 μM [1]
"C[C@@H]1CN(c2ccc(Nc3ncc4c(n3)N(C)CN(c3c(Cl)cccc3Cl)C4=O)cc2)[C@H](C)CN1 [Example 79, 3-(2,6-dichlorophenyl)-7-((4-((2R,5R)-2,5-dimethylpiperazin-1-yl)phenyl)amino)-1-methyl-2,3-dihydropyrimido[4,5-d]pyrimidin-4(1H)-one]",10 to 100 nM,15 to 50 µL/min/mg
"C[C@@H]1CN(c2ccc(Nc3ncc4c(n3)N(C)CN(c3c(Cl)cccc3Cl)C4=O)cc2C(F)F)CCN1 [Example 139, (R)-3-(2,6-dichlorophenyl)-7-((3-(difluoromethyl)-4-(3-methylpiperazin-1-yl)phenyl)amino)-1-methyl-2,3-dihydropyrimido[4,5-d]pyrimidin-4(1H)-one]",10 to 100 nM,15 to 50 µL/min/mg
"CNCc1cc(Nc2ncc3c(n2)N(C)CN(c2c(Cl)cccc2Cl)C3=O)ccc1F [Example 152, 3-(2,6-dichlorophenyl)-7-((4-fluoro-3-((methylamino)methyl)phenyl)amino)-1-methyl-2,3-dihydropyrimido[4,5-d]pyrimidin-4(1H)-one]",≥ 100 nM,≤ 15 µL/min/mg
"Cc1cccc(Cl)c1N1CN(C)c2nc(Nc3ccc(N4C[C@H](C)NC[C@H]4C)cc3)ncc2C1=O [Example 102, 3-(2-chloro-6-methylphenyl)-7-((4-((2R,5S)-2,5-dimethylpiperazin-1-yl)phenyl)amino)-1-methyl-2,3-dihydropyrimido[4,5-d]pyrimidin-4(1H)-one]",10 to 100 nM,≤ 15 µL/min/mg
"CNCc1cc(Nc2ncc3c(n2)N(C)CN(c2c(Cl)cccc2Cl)C3=O)ccc1OC [Example 159, 3-(2,6-dichlorophenyl)-7-((4-methoxy-3-((methylamino)methyl)phenyl)amino)-1-methyl-2,3-dihydropyrimido[4,5-d]pyrimidin-4(1H)-one]",10 to 100 nM,≤ 15 µL/min/mg
"CN1CN(c2c(Cl)cccc2Cl)C(=O)c2cnc(Nc3ccc(N4CCN(C)[C@H](CO)C4)cc3)nc21 [Example 49, (S)-3-(2,6-dichlorophenyl)-7-((4-(3-(hydroxymethyl)-4-methylpiperazin-1-yl)phenyl)amino)-1-methyl-2,3-dihydropyrimido[4,5-d]pyrimidin-4(1H)-one]",10 to 100 nM,15 to 50 µL/min/mg
"CN1CN(c2c(Cl)cccc2Cl)C(=O)c2cnc(Nc3ccc(N4CC5COCC(C4)N5)cc3)nc21 [Example 64, 7-((4-(3-oxa-7,9-diazabicyclo[3.3.1]nonan-7-yl)phenyl)amino)-3-(2,6-dichlorophenyl)-1-methyl-2,3-dihydropyrimido[4,5-d]pyrimidin-4(1H)-one]",10 to 100 nM,≤ 15 µL/min/mg
"CN1CN(c2c(Cl)cccc2Cl)C(=O)c2cnc(Nc3ccc(N4C[C@@H]5C[C@H]4CN5C)cc3)nc21 [Example 44, 3-(2,6-dichlorophenyl)-1-methyl-7-((4-((1S,4S)-5-methyl-2,5-diazabicyclo[2.2.1]heptan-2-yl)phenyl)amino)-2,3-dihydropyrimido[4,5-d]pyrimidin-4(1H)-one]",10 to 100 nM,≤ 15 µL/min/mg
"C[C@@H]1CN(c2ccc(Nc3ncc4c(n3)N(C)CN(c3c(Cl)cccc3Cl)C4=O)cc2OC(F)F)CCN1 [Example 132, (R)-3-(2,6-dichlorophenyl)-7-((3-(difluoromethoxy)-4-(3-methylpiperazin-1-yl)phenyl)amino)-1-methyl-2,3-dihydropyrimido[4,5-d]pyrimidin-4(1H)-one]",10 to 100 nM,≤ 15 µL/min/mg
"CN1CN(c2c(Cl)cccc2Cl)C(=O)c2cnc(Nc3ccc(N4CCN(CCO)CC4)cc3)nc21 [Example 116, 3-(2,6-dichlorophenyl)-7-((4-(4-(2-hydroxyethyl)piperazin-1-yl)phenyl)amino)-1-methyl-2,3-dihydropyrimido[4,5-d]pyrimidin-4(1H)-one]",10 to 100 nM,15 to 50 µL/min/mg
"CN1CN(c2c(Cl)cccc2Cl)C(=O)c2cnc(Nc3ccc(N4CCN5CCOC[C@@H]5C4)c(CO)c3)nc21 [Example 133, (S)-3-(2,6-dichlorophenyl)-7-((4-(hexahydropyrazino[2,1-c][1,4]oxazin-8(1H)-yl)-3-(hydroxymethyl)phenyl)amino)-1-methyl-2,3-dihydropyrimido[4,5-d]pyrimidin-4(1H)-one]",10 to 100 nM,15 to 50 µL/min/mg
"COCc1cc(Nc2ncc3c(n2)N(C)CN(c2ccccc2Cl)C3=O)ccc1N1CCNCC1 [Example 108, 3-(2-chlorophenyl)-7-((3-(methoxymethyl)-4-(piperazin-1-yl)phenyl)amino)-1-methyl-2,3-dihydropyrimido[4,5-d]pyrimidin-4(1H)-one]",10 to 100 nM,≤ 15 µL/min/mg
"CN1CN(c2c(Cl)cccc2Cl)C(=O)c2cnc(Nc3ccc(N4CCN(C)[C@@H](CO)C4)cc3)nc21 [Example 34, (R)-3-(2,6-dichlorophenyl)-7-((4-(3-(hydroxymethyl)-4-methylpiperazin-1-yl)phenyl)amino)-1-methyl-2,3-dihydropyrimido[4,5-d]pyrimidin-4(1H)-one]",10 to 100 nM,15 to 50 µL/min/mg
"CNCc1cc(Nc2ncc3c(n2)N(C)CN(c2c(Cl)cccc2Cl)C3=O)ccc1Br [Example 157, 7-((4-bromo-3-((methylamino)methyl)phenyl)amino)-3-(2,6-dichlorophenyl)-1-methyl-2,3-dihydropyrimido[4,5-d]pyrimidin-4(1H)-one]",10 to 100 nM,≤ 15 µL/min/mg
"C[C@@H]1CN(c2ccc(Nc3ncc4c(n3)N(C)CN(c3c(Cl)cccc3Cl)C4=O)cc2)C[C@H](C)N1C [Example 52, 3-(2,6-dichlorophenyl)-1-methyl-7-((4-((3R,5S)-3,4,5-trimethylpiperazin-1-yl)phenyl)amino)-2,3-dihydropyrimido[4,5-d]pyrimidin-4(1H)-one]",10 to 100 nM,
"Cc1cccc(Cl)c1N1CN(C)c2nc(Nc3ccc(N4CCNCC4)cc3)ncc2C1=O [Example 92, 3-(2-chloro-6-methylphenyl)-1-methyl-7-((4-(piperazin-1-yl)phenyl)amino)-2,3-dihydropyrimido[4,5-d]pyrimidin-4(1H)-one]",10 to 100 nM,
"C[C@@H]1CN[C@@H](C)CN1c1ccc(Nc2ncc3c(n2)N(C)CN(c2c(Cl)cccc2Cl)C3=O)cc1F [Example 81, 3-(2,6-dichlorophenyl)-7-((4-((2R,5S)-2,5-dimethylpiperazin-1-yl)-3-fluorophenyl)amino)-1-methyl-2,3-dihydropyrimido[4,5-d]pyrimidin-4(1H)-one]",10 to 100 nM,
"CC(=O)N1CCN(c2ccc(Nc3ncc4c(n3)N(C)CN(c3c(Cl)cccc3Cl)C4=O)cc2)CC1 [Example 125, 7-((4-(4-acetylpiperazin-1-yl)phenyl)amino)-3-(2,6-dichlorophenyl)-1-methyl-2,3-dihydropyrimido[4,5-d]pyrimidin-4(1H)-one]",10 to 100 nM,
"C[C@@H]1CN(C)[C@@H](C)CN1c1ccc(Nc2ncc3c(n2)N(C)CN(c2c(Cl)cccc2Cl)C3=O)cc1 [Example 45, 3-(2,6-dichlorophenyl)-1-methyl-7-((4-((2R,5S)-2,4,5-trimethylpiperazin-1-yl)phenyl)amino)-2,3-dihydropyrimido[4,5-d]pyrimidin-4(1H)-one]",10 to 100 nM,
"CN1CN(c2c(Cl)cccc2Cl)C(=O)c2cnc(Nc3ccc(N4CCOCC4)c(CO)c3)nc21 [Example 73, 3-(2,6-dichlorophenyl)-7-((3-(hydroxymethyl)-4-morpholinophenyl)amino)-1-methyl-2,3-dihydropyrimido[4,5-d]pyrimidin-4(1H)-one]",10 to 100 nM,
"COc1cc(Nc2ncc3c(n2)N(C)CN(c2c(Cl)cccc2Cl)C3=O)ccc1C1CCN(C)CC1 [Example 183, 3-(2,6-dichlorophenyl)-7-((3-methoxy-4-(1-methylpiperidin-4-yl)phenyl)amino)-1-methyl-2,3-dihydropyrimido[4,5-d]pyrimidin-4(1H)-one]",≤ 10 nM,

# Source: US9850247B2 (Almac Discovery Limited, priority 2013, dated 2017)
